# Laboratory results reported in publication PMC6811361, “Effect of a bound anion on the structure and dynamics of halorhodopsin from Natronomonas pharaonis” (Structural Dynamics, 2019).
# What was measured:
# Assay type in all cases: binding
# [1] = target: T1, halorhodopsin from Natronomonas pharaonis (NpHR) (Natronomonas pharaonis, UniProt P15647); assay: visible resonance Raman spectroscopy (C=N stretch, deuteration shift); settings: covalent, protonated Schiff base at Lys256; pH 7.0; chloride-bound, formate-bound and anion-depleted forms
# T1 construct: gene hop; C-terminal His tag, expressed in E. coli BL21(DE3), solubilised and purified in DDM; all-trans-retinal on Lys256
# T1 sequence (P15647 whole entry): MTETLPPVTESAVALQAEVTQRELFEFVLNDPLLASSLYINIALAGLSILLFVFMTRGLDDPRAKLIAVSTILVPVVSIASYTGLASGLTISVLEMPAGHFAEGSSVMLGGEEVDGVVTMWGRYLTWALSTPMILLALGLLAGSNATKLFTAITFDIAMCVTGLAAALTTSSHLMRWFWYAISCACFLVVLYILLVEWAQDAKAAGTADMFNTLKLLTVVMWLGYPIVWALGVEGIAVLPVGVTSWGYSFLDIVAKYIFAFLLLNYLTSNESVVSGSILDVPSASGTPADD
# [2] = target: T2, halorhodopsin from Natronomonas pharaonis (NpHR) (Natronomonas pharaonis, UniProt P15647, W229F); assay: absorption and time-resolved UV resonance Raman spectroscopy; settings: covalent, protonated Schiff base; retinal added to expression culture
# T2 construct: gene hop; C-terminal His tag, expressed in E. coli BL21(DE3), solubilised and purified in DDM; all-trans-retinal on Lys256
# T2 sequence (P15647 whole entry W229F): as the sequence (P15647 whole entry) above, with W229F counted along it
# [3] = target: T3, halorhodopsin from Natronomonas pharaonis (NpHR) (Natronomonas pharaonis, UniProt P15647, W127F); assay: as above; settings: covalent, protonated Schiff base; retinal added to expression culture
# T3 construct: gene hop; C-terminal His tag, expressed in E. coli BL21(DE3), solubilised and purified in DDM; all-trans-retinal on Lys256
# T3 sequence (P15647 whole entry W127F): as the sequence (P15647 whole entry) above, with W127F counted along it
compound,measurement,setting,value
CC1=C(/C=C/C(C)=C/C=C/C(C)=C/C=O)C(C)(C)CCC1 [all-trans-retinal],"visible resonance Raman spectroscopy (C=N stretch, deuteration shift)",[1],The observed deuteration shifts indicate that the Schiff base is protonated in all three forms
same,absorption and time-resolved UV resonance Raman spectroscopy,[2],sufficient amounts of the W127F and W229F NpHR mutants were obtained to measure their spectra
same,absorption and time-resolved UV resonance Raman spectroscopy,[3],sufficient amounts of the W127F and W229F NpHR mutants were obtained to measure their spectra
